Results published in publication PMC12169608, “Peptidomimetic Phenoxymethyl Ketone Warheads as Potent Dual-Mode Inhibitors against SARS-CoV‑2 M^pro and Cathepsin” (Journal of Medicinal Chemistry, 2025).

target: SARS-CoV-2 main protease (Mpro) (Severe acute respiratory syndrome coronavirus 2, UniProt P0DTD1); test: cell-based

Q: For COc1cccc2[nH]c(C(=O)N[C@@H](Cc3cccc(F)c3)C(=O)N[C@@H](C[C@@H]3CCNC3=O)C(=O)COc3c(F)c(F)c(CO)c(F)c3F)cc12 [compound 1, N-((S)-3-(3-Fluorophenyl)-1-oxo-1-(((S)-3-oxo-1-((S)-2-oxopyrrolidin-3-yl)-4-(2,3,5,6-tetrafluoro-4-(hydroxymethyl)phenoxy)butan-2-yl)amino)propan-2-yl)-4-methoxy-1H-indole-2-carboxamide], which EC50 is on record?
A: 105 nM

Q: How did the EC50 turn out when O=C(N[C@@H](Cc1c[nH]c2ccccc12)C(=O)N[C@@H](C[C@@H]1CCNC1=O)C(=O)COc1c(F)c(F)c(CO)c(F)c1F)c1cc2ccccc2[nH]1 [compound 5, N-((S)-3-(1H-Indol-3-yl)-1-oxo-1-(((S)-3-oxo-1-((S)-2-oxopyrrolidin-3-yl)-4-(2,3,5,6-tetrafluoro-4-(hydroxymethyl)phenoxy)butan-2-yl)amino)propan-2-yl)-1H-indole-2-carboxamide] was run?
A: 2880 nM

Q: COc1cccc2[nH]c(C(=O)N[C@@H](Cc3cccc(F)c3)C(=O)N[C@@H](C[C@@H]3CC(=O)NC3=O)C(=O)COc3c(F)c(F)c(C(C)(C)O)c(F)c3F)cc12 [compound 11] was tested. Which EC50 did it give?
A: 1230 nM

Q: With COc1cccc2[nH]c(C(=O)N[C@@H](Cc3cccc(F)c3)C(=O)N[C@@H](C[C@@H]3CCNC3=O)C(=O)COc3c(F)c(F)c(C(C)O)c(F)c3F)cc12 (stereo partly drawn) [compound 8, N-((2S)-3-(3-Fluorophenyl)-1-oxo-1-(((2S)-3-oxo-1-((S)-2-oxopyrrolidin-3-yl)-4-(2,3,5,6-tetrafluoro-4-(1-hydroxyethyl)phenoxy)butan-2-yl)amino)propan-2-yl)-4-methoxy-1H-indole-2-carboxamide] as the compound, how does the EC50 read?
A: 8.71 nM

Q: With COc1cccc2[nH]c(C(=O)N[C@H](Cc3cccc(F)c3)C(=O)N[C@@H](C[C@@H]3CCNC3=O)C(=O)COc3c(F)c(F)c(CO)c(F)c3F)cc12 [compound 2, N-((R)-3-(3-Fluorophenyl)-1-oxo-1-(((S)-3-oxo-1-((S)-2-oxopyrrolidin-3-yl)-4-(2,3,5,6-tetrafluoro-4-(hydroxymethyl)phenoxy)butan-2-yl)amino)propan-2-yl)-4-methoxy-1H-indole-2-carboxamide] as the compound, how does the EC50 read?
A: 18600 nM

Q: With CCCCCCCCCCCCCCCC(=O)N[C@@H](Cc1cccc(F)c1)C(=O)N[C@@H](C[C@@H]1CCNC1=O)C(=O)COc1c(F)c(F)c(CO)c(F)c1F [compound 4, N-((S)-3-(3-Fluorophenyl)-1-oxo-1-(((S)-3-oxo-1-((S)-2-oxopyrrolidin-3-yl)-4-(2,3,5,6-tetrafluoro-4-(hydroxymethyl)phenoxy)butan-2-yl)amino)propan-2-yl)palmitamide] as the compound, how does the EC50 read?
A: > 50100 nM

Q: With COc1cccc2[nH]c(C(=O)N[C@@H](Cc3cccc(F)c3)C(=O)N[C@@H](C[C@@H]3CCNC3=O)C(=O)COc3c(F)c(F)c(C(C)(C)O)c(F)c3F)cc12 [compound 10, N-((S)-3-(3-Fluorophenyl)-1-oxo-1-(((S)-3-oxo-1-((S)-2-oxopyrrolidin-3-yl)-4-(2,3,5,6-tetrafluoro-4-(2-hydroxypropan-2-yl)phenoxy)butan-2-yl)amino)propan-2-yl)-4-methoxy-1H-indole-2-carboxamide] as the compound, how does the EC50 read?
A: 4.68 nM

Q: COc1cccc2[nH]c(C(=O)N[C@@H](Cc3cccc(F)c3)C(=O)N[C@@H](C[C@@H]3CCNC3=O)C(=O)COc3c(F)c(F)c(F)c(F)c3F)cc12 [compound 16, reference compound] was tested. Which EC50 did it give?
A: < 3.02 nM

Q: For “N-((S)-3-(3-Fluorophenyl)-1-oxo-1-(((S)-2-oxo-5-(5-oxo-1,5-dihydro-4H-1,2,4-triazol-4-yl)-1-(2,3,5,6-tetrafluoro-4-(2-hydroxypropan-2-yl)phenoxy)pentan-3-yl)amino)propan-2-yl)-4-methoxy-1H-indole-2-carboxamide [compound 12]”, which “M^pro reporter assay pEC50” value is on record?
A: 4.66
